Laboratory results reported in patent publication US20040092549A1, “Methods and compositions for selective cancer chemotherapy” (priority 2001, published 2004).

What was measured:
[1] = system: melanoma cells; conditions: treatment as in Example 2
Experimental: (§2) Cultures are re-fed periodically with additions of respective supplements, with or without medium change as indicated. Controls consist of cells receiving growth medium without added supplement.
(§3) The following day, threonate treatment is initiated using one of two protocols.
(§4) In one protocol (short exposure), monolayers are washed and exposed directly to 1 mL/well of 7.5-30 mM threonate (prepared in Ringer's solution) for brief periods at 37 C. as described by Fay and Verlangieri (referenced above). […] After exposure, the solution is removed and replaced by growth medium. […]
(§5) Cell survival following treatment is assessed at predetermined intervals by taking viable cell counts using a Neubauer haemocytometer. Viable cells are scored as those capable excluding trypan blue as previously described (Harakeh and Jariwalla, Am.J.Clin.Nutr. 54:1231S-1235S (1991)). […]
(§6) The induction of apoptosis following treatment of various tumor cell types with the Test compositions and controls described in Example 1 is evaluated using an enzyme-linked immunoassay (“ELISA”) developed by Boehringer-Mannheim (Indianapolis, Ind.). […] The presence and level of nucleosomal fragments in cytoplasmic lysates after different treatments is determined using the procedure specified in the cell-death detection ELISA kit, supplied by Boehringer-Mannheim. […]

[2] = system: hepatoma cells; conditions: treatment as in Example 2
Experimental: as §2, §3, §4, §5, §6

[3] = system: T-84 Colon Carcinoma; assay: Cell-death detection ELISA (apoptosis), T-84 colon carcinoma; type: cell-based, Human
Experimental: (§1) Working stock solutions (10× strength) are made in sterile water immediately before use. For comparative evaluation, stock solutions of Test 2 and Test 4 solutions are prepared in sterile water, normalized to contain AA equivalents identical to the Test 1 stock. These stocks are stored at room temperature for use in evaluations. […] Parallel sets of wells are treated similarly with stock solutions of CA+CT and CA alone, containing the same equivalents of AA as Test 1. Control cultures are treated with an equivalent volume of sterile water. Periodic treatment with these compositions is repeated at 1-2 day intervals by direct addition of fresh solutions (without change of growth medium). […] Briefly, the ELISA assay is carried out as follows. […] The “Number of Treatments” is the total number of treatments with the Composition. The “Maximum Fold Increase in Apoptosis” is the maximal fold change in apoptosis over the control and the “Maximum Dose” is the concentration of the Composition which induces the “Maximum Fold Apoptosis” compared to the control.

[4] = system: Malme-3M Melanoma; assay: Cell-death detection ELISA (apoptosis), Malme-3M melanoma; type: cell-based, Human
Experimental: as §1

[5] = system: SK-N-MC Neuroblastoma; assay: Cell-death detection ELISA (apoptosis), SK-N-MC neuroblastoma; type: cell-based, Human
Experimental: as §1

[6] = system: Malme-3 Normal Human Skin Fibroblasts; assay: Cell-death detection ELISA (apoptosis), Malme-3 normal skin fibroblasts; type: cell-based
Experimental: as §1

[7] = system: SK-Hep-1 Liver adenocarcinoma; assay: Cell-death detection ELISA (apoptosis), SK-Hep-1 liver adenocarcinoma; type: cell-based, Human
Experimental: as §1

[8] = system: WRL-68 Normal Human Liver Cells; assay: Cell-death detection ELISA (apoptosis), WRL-68 normal liver cells; type: cell-based
Experimental: as §1

[9] = concentration causing 2-fold change in apoptosis over control
[10] = concentration inducing the maximum fold apoptosis
[11] = maximal fold change over control

O=C1O[C@H]([C@@H](O)CO)C(O)=C1O [ascorbic acid (AA), Ascorbic Acid]
cell death (apoptosis) in melanoma cells as compared to normal cellular counterparts [1]: selective dose-dependent cell death (apoptosis)

Calcium Threonate [calcium threonate (CT)]
cell death (apoptosis) in hepatoma cells as compared to normal cellular counterparts [2]: selective dose-dependent cell death (apoptosis) | cell death (apoptosis) in melanoma cells as compared to normal cellular counterparts [1]: selective dose-dependent cell death (apoptosis)

Calcium Ascorbate
MINIMUM APOPTOTIC DOSE, DOSE CONC. (%) [3, 9]: >0.06% | MAXIMUM FOLD INCREASE IN APOPTOSIS, DOSE CONC. (%) [3, 10]: 0.033% | MAXIMUM FOLD INCREASE IN APOPTOSIS [3, 11]: 1.77 fold | MINIMUM APOPTOTIC DOSE, DOSE CONC. (%) [4, 9]: 0.012% | MAXIMUM FOLD INCREASE IN APOPTOSIS, DOSE CONC. (%) [4, 10]: 0.025% | MAXIMUM FOLD INCREASE IN APOPTOSIS [4, 11]: 92.8 fold | MINIMUM APOPTOTIC DOSE, DOSE CONC. (%) [5, 9]: 0.015% | MAXIMUM FOLD INCREASE IN APOPTOSIS, DOSE CONC. (%) [5, 10]: 0.015% | MAXIMUM FOLD INCREASE IN APOPTOSIS [5, 11]: 5.03 fold | MINIMUM APOPTOTIC DOSE, DOSE CONC. (%) [6, 9]: 0.025% | MAXIMUM FOLD INCREASE IN APOPTOSIS, DOSE CONC. (%) [6, 10]: 0.025% | MAXIMUM FOLD INCREASE IN APOPTOSIS [6, 11]: 2.16 fold | MINIMUM APOPTOTIC DOSE, DOSE CONC. (%) [7, 9]: 0.006% | MAXIMUM FOLD INCREASE IN APOPTOSIS, DOSE CONC. (%) [7, 10]: 0.033% | MAXIMUM FOLD INCREASE IN APOPTOSIS [7, 11]: 12.04 fold | MINIMUM APOPTOTIC DOSE, DOSE CONC. (%) [8, 9]: 0.012% | MAXIMUM FOLD INCREASE IN APOPTOSIS, DOSE CONC. (%) [8, 10]: 0.012% | MAXIMUM FOLD INCREASE IN APOPTOSIS [8, 11]: 2.22 fold
